“And” between values parts separate entries of the source, which are not always exact repeats. Equal values may be shown once.
Test system: 931267-113-T-J1-PDC multicell spheroid viability
Assay: Anticancer human tumor 931267-113-T-J1-PDC patient-derived colon adenocarcinoma cell line growth inhibition [PI3K]
Conditions: for viability, T/C: stronger effect = lower value
In short: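 We assembled tumor spheroids that included a stromal compartment of HUVEC and MSCs, then exposed them to targeted agents alone and together with PI3K pathway inhibitors. Concentration series descended by half-log from clinically achievable Cmax levels. Viability served as the endpoint.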

[1] = curve of first compound, second compound 0.0316 µM
[2] = curve of first compound, second compound 0.1 µM
[3] = curve of first compound, second compound 0.316 µM
[4] = curve of first compound, second compound 1 µM
[5] = second compound 0.0316 µM, first compound 0.0316 µM
[6] = second compound 0.0316 µM, first compound 0.1 µM
[7] = second compound 0.0316 µM, first compound 0.316 µM
[8] = second compound 0.0316 µM, first compound 1 µM
[9] = second compound 0.0316 µM, first compound 3.16 µM
[10] = second compound 0.0316 µM, first compound 10 µM
[11] = second compound 0.1 µM, first compound 0.0316 µM
[12] = second compound 0.1 µM, first compound 0.1 µM
[13] = second compound 0.1 µM, first compound 0.316 µM
[14] = second compound 0.1 µM, first compound 1 µM
[15] = second compound 0.1 µM, first compound 3.16 µM
[16] = second compound 0.1 µM, first compound 10 µM
[17] = second compound 0.316 µM, first compound 0.0316 µM
[18] = second compound 0.316 µM, first compound 0.1 µM
[19] = second compound 0.316 µM, first compound 0.316 µM
[20] = second compound 0.316 µM, first compound 1 µM
[21] = second compound 0.316 µM, first compound 3.16 µM
[22] = second compound 0.316 µM, first compound 10 µM
[23] = second compound 1 µM, first compound 0.0316 µM
[24] = second compound 1 µM, first compound 0.1 µM
[25] = second compound 1 µM, first compound 0.316 µM
[26] = second compound 1 µM, first compound 1 µM
[27] = second compound 1 µM, first compound 3.16 µM
[28] = second compound 1 µM, first compound 10 µM
[29] = curve of first compound, second compound 3.16 µM
[30] = curve of first compound, second compound 10 µM
[31] = second compound 3.16 µM, first compound 0.0316 µM
[32] = second compound 3.16 µM, first compound 0.1 µM
[33] = second compound 3.16 µM, first compound 0.316 µM
[34] = second compound 3.16 µM, first compound 1 µM
[35] = second compound 3.16 µM, first compound 3.16 µM
[36] = second compound 3.16 µM, first compound 10 µM
[37] = second compound 10 µM, first compound 0.0316 µM
[38] = second compound 10 µM, first compound 0.1 µM
[39] = second compound 10 µM, first compound 0.316 µM
[40] = second compound 10 µM, first compound 1 µM
[41] = second compound 10 µM, first compound 3.16 µM
[42] = second compound 10 µM, first compound 10 µM
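Further: viability read 7 days after compound addition.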

For `C=CC(=O)N1CCN(c2nc(=O)n(-c3c(C)ccnc3C(C)C)c3nc(-c4c(O)cccc4F)c(F)cc23)C(C)C1` (centres undefined) + CC(Nc1ccc2c(c1)OCCn1cc(N3C(=O)OCC3C(F)F)nc1-2)C(N)=O, the IC50 (curve of first compound, second compound 0.00316 µM) was greater than 10 µM, the IC50 (curve of first compound, second compound 0.01 µM) was greater than 10 µM and the IC50 [1] was greater than 10 µM. It also gave an IC50 [2] greater than 10 µM, an IC50 [3] greater than 10 µM and an IC50 [4] greater than 10 µM. For the same compound, the viability, T/C (second compound 0.00316 µM, first compound 0.0316 µM) was 108%, the viability, T/C (second compound 0.00316 µM, first compound 0.1 µM) was 106% and the viability, T/C (second compound 0.00316 µM, first compound 0.316 µM) was 100%. It also gave a viability, T/C (second compound 0.00316 µM, first compound 1 µM) of 114%, a viability, T/C (second compound 0.00316 µM, first compound 3.16 µM) of 115% and a viability, T/C (second compound 0.00316 µM, first compound 10 µM) of 107%. It also gave a viability, T/C (second compound 0.01 µM, first compound 0.0316 µM) of 94.8%, a viability, T/C (second compound 0.01 µM, first compound 0.1 µM) of 98% and a viability, T/C (second compound 0.01 µM, first compound 0.316 µM) of 117%. The viability, T/C (second compound 0.01 µM, first compound 1 µM) was 118%, the viability, T/C (second compound 0.01 µM, first compound 3.16 µM) was 110% and the viability, T/C (second compound 0.01 µM, first compound 10 µM) was 106%. For the same compound, the viability, T/C [5] was 122%, the viability, T/C [6] was 105% and the viability, T/C [7] was 90.4%. For the same compound, the viability, T/C [8] was 109%, the viability, T/C [9] was 114% and the viability, T/C [10] was 106%. For the same compound, the viability, T/C [11] was 102%, the viability, T/C [12] was 100% and the viability, T/C [13] was 86.7%. It also gave a viability, T/C [14] of 102%, a viability, T/C [15] of 98% and a viability, T/C [16] of 97%. The viability, T/C [17] was 91.9%, the viability, T/C [18] was 87.1% and the viability, T/C [19] was 99.8%. The viability, T/C [20] was 88.8%, the viability, T/C [21] was 90.4% and the viability, T/C [22] was 72.2%. For the same compound, the viability, T/C [23] was 92.9%, the viability, T/C [24] was 74% and the viability, T/C [25] was 79%. For the same compound, the viability, T/C [26] was 80.7%, the viability, T/C [27] was 83.8% and the viability, T/C [28] was 71.4%.

`CC1(C)CCC(Nc2ncc(C(F)(F)F)c(-c3c[nH]c4c(P(C)(C)=O)c(C#N)ccc34)n2)CN1` (centres undefined) + Cc1nc(NC(=O)N2CCCC2C(N)=O)sc1-c1ccnc(C(C)(C)C(F)(F)F)c1 was tested, and the IC50 [1] was greater than 10 µM, the IC50 [2] was greater than 10 µM and the IC50 [3] was greater than 10 µM. It also gave an IC50 [4] greater than 10 µM, an IC50 [29] of 9.36 µM and an IC50 [30] of 3.31 µM. For the same compound, the viability, T/C [5] was 101%, the viability, T/C [6] was 93.7% and the viability, T/C [7] was 83.2%. It also gave a viability, T/C [8] of 74.1%, a viability, T/C [9] of 70.9% and a viability, T/C [10] of 58.2%. The viability, T/C [11] was 94.5%, the viability, T/C [12] was 70.2% and the viability, T/C [13] was 70.7%. The viability, T/C [14] was 70.5%, the viability, T/C [15] was 77.9% and the viability, T/C [16] was 58%. It also gave a viability, T/C [17] of 79.6%, a viability, T/C [18] of 79% and a viability, T/C [19] of 80.4%. It also gave a viability, T/C [20] of 67.6%, a viability, T/C [21] of 74.5% and a viability, T/C [22] of 54.6%. For the same compound, the viability, T/C [23] was 82%, the viability, T/C [24] was 77.6% and the viability, T/C [25] was 70.7%. For the same compound, the viability, T/C [26] was 69.6%, the viability, T/C [27] was 62.3% and the viability, T/C [28] was 52.2%. The viability, T/C [31] was 75%, the viability, T/C [32] was 65.5% and the viability, T/C [33] was 60.6%. It also gave a viability, T/C [34] of 63.2%, a viability, T/C [35] of 61.5% and a viability, T/C [36] of 46%. The viability, T/C [37] was 54%, the viability, T/C [38] was 50.6% and the viability, T/C [39] was 49.8%. It also gave a viability, T/C [40] of 47%, a viability, T/C [41] of 52.7% and a viability, T/C [42] of 30.4%.

For `Cn1ncnc1[C@H]1c2n[nH]c(=O)c3cc(F)cc(c23)N[C@@H]1c1ccc(F)cc1`, the viability, T/C (compound 0.000316 µM) was 104% [middle of 4 runs], the viability, T/C (compound 0.001 µM) was 107% [middle of 4 runs] and the viability, T/C (compound 0.00316 µM) was 101% [middle of 4 runs]. The viability, T/C (compound 0.01 µM) was 111% and 106% and 97% (2×), the viability, T/C (compound 0.0316 µM) was 112% [middle of 4 runs] and the viability, T/C (compound 0.1 µM) was 95.6% [middle of 4 runs]. It also gave an IC50 (curve of compound) greater than 0.1 µM.

With `Cn1ncc(Cl)c1-c1cc(C(=O)NC(CN)Cc2cccc(F)c2)sc1Cl` (centres undefined) + Cc1nc(NC(=O)N2CCCC2C(N)=O)sc1-c1ccnc(C(C)(C)C(F)(F)F)c1 the IC50 [1] was 6.31 µM, the IC50 [2] was 5.39 µM and the IC50 [3] was 5.52 µM. For the same compound, the IC50 [4] was 4.31 µM, the IC50 [29] was 4.15 µM and the IC50 [30] was 2.63 µM. For the same compound, the viability, T/C [5] was 97.3%, the viability, T/C [6] was 89% and the viability, T/C [7] was 88.7%. For the same compound, the viability, T/C [8] was 73.6%, the viability, T/C [9] was 79.7% and the viability, T/C [10] was 33.6%. The viability, T/C [11] was 101%, the viability, T/C [12] was 86% and the viability, T/C [13] was 91.4%. The viability, T/C [14] was 85%, the viability, T/C [15] was 68.3% and the viability, T/C [16] was 29.4%. For the same compound, the viability, T/C [17] was 89.3%, the viability, T/C [18] was 94% and the viability, T/C [19] was 83.2%. For the same compound, the viability, T/C [20] was 85.9%, the viability, T/C [21] was 68.2% and the viability, T/C [22] was 30.2%. It also gave a viability, T/C [23] of 84.3%, a viability, T/C [24] of 84.7% and a viability, T/C [25] of 77%. The viability, T/C [26] was 68.7%, the viability, T/C [27] was 59.9% and the viability, T/C [28] was 30.1%. It also gave a viability, T/C [31] of 73.6%, a viability, T/C [32] of 61.7% and a viability, T/C [33] of 66.9%. It also gave a viability, T/C [34] of 63.8%, a viability, T/C [35] of 58.8% and a viability, T/C [36] of 23.5%. It also gave a viability, T/C [37] of 69.9%, a viability, T/C [38] of 61.6% and a viability, T/C [39] of 58.7%. For the same compound, the viability, T/C [40] was 60.5%, the viability, T/C [41] was 48.9% and the viability, T/C [42] was 21.9%.

In the case of `Cn1nccc1Nc1nccc(-c2ccn(C(CO)c3ccc(Cl)c(F)c3)c(=O)c2)n1` (centres undefined), the viability, T/C (compound 0.0316 µM) is reported as 100% [middle of 4 runs], the viability, T/C (compound 0.1 µM) is reported as 91.3% [middle of 4 runs] and the viability, T/C (compound 0.316 µM) is reported as 90.2% [middle of 4 runs]. For the same compound, the viability, T/C (compound 1 µM) was 74.1% [middle of 4 runs], the viability, T/C (compound 3.16 µM) was 67.2% [middle of 4 runs] and the viability, T/C (compound 10 µM) was 40.4% [middle of 4 runs].
